Molecular target: MMP-9 (Homo sapiens, UniProt P14780)
Assay: Fluorometric assay of MMP-9 inhibition (cleavage of a fluorogenic peptide substrate)
Format: biochemical
Settings: incubated 30 minutes at room temperature
Description: The second assay utilized the technique of fluorescence resonance energy transfer (FRET). The substrate peptide (Calbiochem) comprised seven amino acids coupled to a carboxyl terminal dinitrophenyl acceptor, and an amino terminal 2-aminobenzo-anthraniloyl (Abz) moiety donor. Cleavage of this substrate by MMP-9 results in the liberation of a fluorescent product (365 nm excitation, 450 nm emission). […] MMP at a concentration of 0.5 μM was mixed with varying amounts of compound and incubated at 25° C. for 10 minutes in order to effect binding. The protein mixture was added to the peptide substrate, and was quickly mixed. Fluorescence intensity as a function of time was measured with a Dynex MFX fluorescence microtiter plate reader. Fluorescence intensity was related back to moles of peptide cleaved by producing a standard curve with an Abz containing non-FRET peptide. Inhibitory constants were derived from the curves as above. (Segel, IH. (1993) Enzyme Kinetics: Behavior and analysis of rapid equilibrium and steady-state enzyme systems. Wiley Classics Library, John Wiley and Sons, Inc. New York.)
The inhibition of MMP-9 by AQCA was measured by fluorometric assay. The fluorometric assay measures the cleavage of a fluorogenic peptide substrate (excitation wavelength 355 nm, emission wavelength 455 nm). MMP-9 is incubated with 0 mM AQCA (open circles), 1 mM AQCA (closed circles); or 2 mM AQCA (closed squares) for 30 minutes at room temperature. Fluorescence is measured at the times (in minutes) indicated.
Inhibition of MMP-9. Fluorometric assay which measures the cleavage of a fluorogenic peptide substrate (excitation wavelength 355 nm, emission wavelength 455 nm). […] Fluorescence is measured at the times (in minutes) indicated.
The inhibition of MMP-9 by anthraquinyl-mercaptoethylamine was measured by fluorometric assay. […] Fluorescence is measured at the times (in minutes) indicated.
The inhibition of MMP-9 by anthraquinyl alanine hyroxamate was measured by fluorometric assay. […] Fluorescence is measured at the times (in minutes) indicated.

[1] = 0.25 mM compound, FIG. 3 and FIG. 4

Chain of MMP-9 (P14780 94-707, species assumed): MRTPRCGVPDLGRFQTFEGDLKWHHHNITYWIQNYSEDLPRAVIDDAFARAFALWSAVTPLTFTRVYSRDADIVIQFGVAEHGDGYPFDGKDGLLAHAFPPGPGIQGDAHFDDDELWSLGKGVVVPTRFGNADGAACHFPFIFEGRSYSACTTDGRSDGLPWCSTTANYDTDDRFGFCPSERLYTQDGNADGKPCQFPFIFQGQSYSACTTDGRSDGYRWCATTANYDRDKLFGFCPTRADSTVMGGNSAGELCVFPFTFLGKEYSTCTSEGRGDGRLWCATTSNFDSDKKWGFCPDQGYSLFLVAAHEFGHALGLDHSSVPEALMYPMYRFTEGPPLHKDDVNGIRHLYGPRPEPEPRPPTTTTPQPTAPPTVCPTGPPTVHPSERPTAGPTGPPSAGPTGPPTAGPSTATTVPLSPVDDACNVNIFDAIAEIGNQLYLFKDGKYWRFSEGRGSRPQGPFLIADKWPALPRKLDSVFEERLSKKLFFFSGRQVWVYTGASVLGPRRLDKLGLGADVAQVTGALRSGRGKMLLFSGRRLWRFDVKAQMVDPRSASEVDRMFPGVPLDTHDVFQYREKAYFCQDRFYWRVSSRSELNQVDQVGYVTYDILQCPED

| SMILES | inhibition of the enzymatic activity of MMP-9 [1] | inhibition of the enzymatic activity of MMP-9 (1 mM or 2 mM AQCA, FIG. 2) |
| --- | --- | --- |
| CC(NC(=O)c1cc(O)c2c(c1)C(=O)c1cccc(O)c1C2=O)C(=O)NO (stereo not drawn) [anthraquinyl alanine hyroxamate, anthraquinyl-alanine hydroxamate] | inhibited the enzymatic activity of MMP-9 | – |
| O=C(NCCS)c1cc(O)c2c(c1)C(=O)c1cccc(O)c1C2=O [anthraquinyl mercaptoethylamine, anthraquinyl-mercaptoethyamine] | inhibited the enzymatic activity of MMP-9 | – |
| O=C(O)c1cc(O)c2c(c1)C(=O)c1cccc(O)c1C2=O [AQCA, 4,5-dihydroxyanthaquinone-2-carboxylic acid] | – | inhibited the enzymatic activity of MMP-9 in a dose dependent manner |

— US6600057B2, “Matrix metalloproteinase inhibitors” (Kimberly-Clark Worldwide, Inc., priority 2000, dated 2003)
